# Molecular target: T1, androgen receptor (Homo sapiens, UniProt P10275)
# T1 sequence (P10275 1-920 Q868H): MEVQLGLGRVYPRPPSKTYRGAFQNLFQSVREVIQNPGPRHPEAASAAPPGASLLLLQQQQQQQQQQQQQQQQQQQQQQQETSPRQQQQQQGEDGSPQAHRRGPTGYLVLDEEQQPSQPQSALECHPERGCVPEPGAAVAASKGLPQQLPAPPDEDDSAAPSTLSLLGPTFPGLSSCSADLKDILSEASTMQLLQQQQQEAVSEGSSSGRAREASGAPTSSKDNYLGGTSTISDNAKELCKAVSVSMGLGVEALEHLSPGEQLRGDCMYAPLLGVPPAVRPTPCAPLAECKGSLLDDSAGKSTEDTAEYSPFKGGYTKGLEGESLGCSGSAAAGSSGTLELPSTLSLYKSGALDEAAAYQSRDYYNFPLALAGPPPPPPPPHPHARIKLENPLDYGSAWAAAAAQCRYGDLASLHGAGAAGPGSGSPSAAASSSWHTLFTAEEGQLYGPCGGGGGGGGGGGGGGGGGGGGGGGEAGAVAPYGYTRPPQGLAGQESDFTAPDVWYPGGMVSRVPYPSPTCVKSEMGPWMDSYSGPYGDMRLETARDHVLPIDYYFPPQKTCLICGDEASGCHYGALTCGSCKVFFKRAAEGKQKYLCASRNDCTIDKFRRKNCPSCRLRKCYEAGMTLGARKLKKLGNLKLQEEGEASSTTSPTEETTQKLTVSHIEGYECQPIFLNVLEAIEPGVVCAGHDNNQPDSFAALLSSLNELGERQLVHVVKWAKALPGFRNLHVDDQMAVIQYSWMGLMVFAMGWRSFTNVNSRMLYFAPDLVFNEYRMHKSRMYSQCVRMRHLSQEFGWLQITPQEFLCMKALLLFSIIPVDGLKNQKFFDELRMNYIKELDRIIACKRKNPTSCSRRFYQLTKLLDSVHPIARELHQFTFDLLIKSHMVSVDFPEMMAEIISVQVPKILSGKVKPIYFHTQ
# Assay: AR Antagonist Cell Assay (MMTV-luciferase reporter, DHT-induced)
# Type: cell-based
# Details: MDA-MB453-MMTV clone 54-19 cells, 100 pM DHT, 17 hr
# Procedure, shortened: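 Stably transfected MDA-MB453 cells carrying an ARE-containing MMTV promoter–firefly luciferase reporter, pretreated 30 min with compound at 10 uM or 1 uM in 1% charcoal-treated serum medium. Then stimulated with 100 pM DHT for 17 hr at 37° C. and luminescence read; expressed as % inhibition of DHT-induced signal.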
row,SMILES,IC50 [nM]
1,"COc1ccccc1NS(=O)(=O)c1ccc2[nH]c(=O)cc(C(F)(F)F)c2c1 [Example 92, 2-Oxo-4-trifluoromethyl-1,2-dihydroquinoline-6-sulfonic acid(2-methoxyphenyl)amide]",> 10000
2,"O=c1cc(C(F)(F)F)c2cc(S(=O)(=O)Nc3ccc4ncccc4c3)ccc2[nH]1 [Example 93, 2-Oxo-4-trifluoromethyl-1,2-dihydroquinoline-6-sulfonic acidquinolin-6-ylamide]",3460
3,"O=c1cc(C(F)(F)F)c2cc(S(=O)(=O)Nc3ccc(F)cc3F)ccc2[nH]1 [Example 94, 2-Oxo-4-trifluoromethyl-1,2-dihydroquinoline-6-sulfonic acid(2,4-difluorophenyl)amide]",> 10000
4,"N#CCc1ccc(NS(=O)(=O)c2ccc3[nH]c(=O)cc(C(F)(F)F)c3c2)cc1 [Example 95, 2-Oxo-4-trifluoromethyl-1,2-dihydroquinoline-6-sulfonic acid(4-cyanomethylphenyl)amide]",840
5,"O=c1cc(C(F)(F)F)c2cc(S(=O)(=O)Nc3ccc4c(c3)CCC4)ccc2[nH]1 [Example 96, 2-Oxo-4-trifluoromethyl-1,2-dihydroquinoline-6-sulfonic acidindan-5-ylamide]",140
6,"CC(C)c1ccc(NS(=O)(=O)c2ccc3[nH]c(=O)cc(C(F)(F)F)c3c2)cc1 [Example 97, 2-Oxo-4-trifluoromethyl-1,2-dihydroquinoline-6-sulfonic acid(4-isopropylphenyl)amide]",200
7,"O=c1cc(C(F)(F)F)c2cc(S(=O)(=O)Nc3ccc4c(c3)OCO4)ccc2[nH]1 [Example 98, 2-Oxo-4-trifluoromethyl-1,2-dihydroquinoline-6-sulfonic acidbenzo[1,3]dioxol-5-ylamide]",> 10000
8,"Cc1ccc(-c2ccccc2)cc1NS(=O)(=O)c1ccc2[nH]c(=O)cc(C(F)(F)F)c2c1 [Example 99, 2-Oxo-4-trifluoromethyl-1,2-dihydroquinoline-6-sulfonic acid(4-methylbiphenyl-3-yl)amide]",> 10000
9,"CC(O)c1cccc(NS(=O)(=O)c2ccc3[nH]c(=O)cc(C(F)(F)F)c3c2)c1 (stereo not drawn) [Example 100, 2-Oxo-4-trifluoromethyl-1,2-dihydroquinoline-6-sulfonic acid[3-(1-hydroxyethyl)phenyl]amide]",> 10000
10,"CSc1cccc(NS(=O)(=O)c2ccc3[nH]c(=O)cc(C(F)(F)F)c3c2)c1 [Example 101, 2-Oxo-4-trifluoromethyl-1,2-dihydroquinoline-6-sulfonic acid(3-methylsulfanylphenyl)amide]",360
11,"COc1ccc(OC)c(NS(=O)(=O)c2ccc3[nH]c(=O)cc(C(F)(F)F)c3c2)c1 [Example 102, 2-Oxo-4-trifluoromethyl-1,2-dihydroquinoline-6-sulfonic acid(2,5-dimethoxyphenyl)amide]",7860
12,"COc1cc(NS(=O)(=O)c2ccc3[nH]c(=O)cc(C(F)(F)F)c3c2)cc(OC)c1 [Example 103, 2-Oxo-4-trifluoromethyl-1,2-dihydroquinoline-6-sulfonic acid(3,5-dimethoxyphenyl)amide]",200
13,"Cn1nc(C(C)(C)C)cc1NS(=O)(=O)c1ccc2[nH]c(=O)cc(C(F)(F)F)c2c1 [Example 104, 2-Oxo-4-trifluoromethyl-1,2-dihydroquinoline-6-sulfonic acid(5-tert-butyl-2-methyl-2H-pyrazol-3-yl)amide]",> 10000
14,"CC(C)Oc1cccc(NS(=O)(=O)c2ccc3[nH]c(=O)cc(C(F)(F)F)c3c2)c1 [Example 105, 2-Oxo-4-trifluoromethyl-1,2-dihydroquinoline-6-sulfonic acid(3-isopropoxyphenyl)amide]",450
15,"O=c1cc(C(F)(F)F)c2cc(S(=O)(=O)Nc3cccc(OC(F)F)c3)ccc2[nH]1 [Example 106, 2-Oxo-4-trifluoromethyl-1,2-dihydroquinoline-6-sulfonic acid(3-difluoromethoxyphenyl)amide]",260
16,"Cc1cc2c(NS(=O)(=O)c3ccc4[nH]c(=O)cc(C(F)(F)F)c4c3)cccc2nn1 [Example 108, 2-Oxo-4-trifluoromethyl-1,2-dihydroquinoline-6-sulfonic acid(3-methylcinnolin-5-yl)amide]",> 10000
17,"O=c1cc(C(F)(F)F)c2cc(S(=O)(=O)Nc3cccc(C(F)(F)F)c3)ccc2[nH]1 [Example 109, 2-Oxo-4-trifluoromethyl-1,2-dihydroquinoline-6-sulfonic acid(3-trifluoromethylphenyl)amide]",210

row,SMILES,IC50 [nM]
1,"O=c1cc(C(F)(F)F)c2cc(S(=O)(=O)Nc3ccccc3Br)ccc2[nH]1 [Example 110, 2-Oxo-4-trifluoromethyl-1,2-dihydroquinoline-6-sulfonic acid(2-bromophenyl)amide]",> 10000
2,"Cc1cc(=O)oc2cc(NS(=O)(=O)c3ccc4[nH]c(=O)cc(C(F)(F)F)c4c3)ccc12 [Example 111, 2-Oxo-4-trifluoromethyl-1,2-dihydroquinoline-6-sulfonic acid(4-methyl-2-oxo-2H-chromen-7-yl)amide]",> 10000
3,"O=c1cc(C(F)(F)F)c2cc(S(=O)(=O)Nc3cccc(OC(F)(F)F)c3)ccc2[nH]1 [Example 112, 2-Oxo-4-trifluoromethyl-1,2-dihydroquinoline-6-sulfonic acid(3-trifluoromethoxyphenyl)amide]",120
4,"O=c1cc(C(F)(F)F)c2cc(S(=O)(=O)Nc3ccc(CCO)cc3)ccc2[nH]1 [Example 113, 2-Oxo-4-trifluoromethyl-1,2-dihydroquinoline-6-sulfonic acid[4-(2-hydroxyethyl)phenyl]amide]",> 10000
5,"O=c1cc(C(F)(F)F)c2cc(S(=O)(=O)Nc3cccc(OCc4ccccc4)c3)ccc2[nH]1 [Example 114, 2-Oxo-4-trifluoromethyl-1,2-dihydroquinoline-6-sulfonic acid(3-benzyloxyphenyl)amide]",> 10000
6,"O=c1cc(C(F)(F)F)c2cc(S(=O)(=O)Nc3ccccc3Sc3ccccc3)ccc2[nH]1 [Example 115, 2-Oxo-4-trifluoromethyl-1,2-dihydroquinoline-6-sulfonic acid(2-phenylsulfanylphenyl)amide]",8130
7,"COc1cccc(NS(=O)(=O)c2ccc3[nH]c(=O)cc(C(F)(F)F)c3c2)c1 [Example 116, 2-Oxo-4-trifluoromethyl-1,2-dihydroquinoline-6-sulfonic acid(3-methoxyphenyl)amide]",340
8,"CC(C)NS(=O)(=O)c1ccc2[nH]c(=O)cc(C(F)(F)F)c2c1 [Example 117, 2-Oxo-4-trifluoromethyl-1,2-dihydroquinoline-6-sulfonic acidisopropylamide]",2340
9,"O=c1cc(C(F)(F)F)c2cc(S(=O)(=O)NCc3cccs3)ccc2[nH]1 [Example 118, 2-Oxo-4-trifluoromethyl-1,2-dihydroquinoline-6-sulfonic acid(thiophen-2-ylmethyl)amide]",> 10000
10,"COCCNS(=O)(=O)c1ccc2[nH]c(=O)cc(C(F)(F)F)c2c1 [Example 119, 2-Oxo-4-trifluoromethyl-1,2-dihydroquinoline-6-sulfonic acid(2-methoxyethyl)amide]",4690
11,"O=c1cc(C(F)(F)F)c2cc(S(=O)(=O)NC3CCCC3)ccc2[nH]1 [Example 120, 2-Oxo-4-trifluoromethyl-1,2-dihydroquinoline-6-sulfonic acidcyclopentylamide]",820
12,"CC(C)CCNS(=O)(=O)c1ccc2[nH]c(=O)cc(C(F)(F)F)c2c1 [Example 121, 2-Oxo-4-trifluoromethyl-1,2-dihydroquinoline-6-sulfonic acid(3-methylbutyl)amide]",280
13,"CC(C)(C)CCNS(=O)(=O)c1ccc2[nH]c(=O)cc(C(F)(F)F)c2c1 [Example 122, 2-Oxo-4-trifluoromethyl-1,2-dihydroquinoline-6-sulfonic acid(3,3-dimethylbutyl)amide]",1030
14,"O=c1cc(C(F)(F)F)c2cc(S(=O)(=O)NCC3CCCCC3)ccc2[nH]1 [Example 123, 2-Oxo-4-trifluoromethyl-1,2-dihydroquinoline-6-sulfonic acidcyclohexylmethylamide]",8510
15,"Cc1ccccc1CNS(=O)(=O)c1ccc2[nH]c(=O)cc(C(F)(F)F)c2c1 [Example 124, 2-Oxo-4-trifluoromethyl-1,2-dihydroquinoline-6-sulfonic acid2-methylbenzylamide]",4610
16,"C[C@@H](NS(=O)(=O)c1ccc2[nH]c(=O)cc(C(F)(F)F)c2c1)c1ccccc1 [Example 125, 2-Oxo-4-trifluoromethyl-1,2-dihydroquinoline-6-sulfonic acid(1-phenylethyl)amide]",2940
